Reference: the supplement of paper PMC11061612

Legend:
Assay in all cases: Bliss excess, mean over the matrix (fraction); higher = more synergy
SK-N-DZ (Neuroblastoma) = test system: SK-N-DZ (Neuroblastoma)
In short: (§1)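 Bliss excess equals the observed combination effect minus the expected value EA + EB − EA·EB, where EA and EB are the effects of each agent alone. Combination Emax is the second-highest inhibition within the matrix. Inhibition was scaled from CellTiter-Glo 2.0 luminescence, with 0 set by vehicle wells and 1 by blank wells, after 72 hours of two-drug dosing of cells plated in 1536-well plates.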

[1] = test system: NCI-H1648 (Lung Adenocarcinoma)
In short: as §1

[2] = test system: JURL-MK1 (Chronic Myelogenous Leukemia)
In short: as §1

HT-144 (Melanoma) = test system: HT-144 (Melanoma)
In short: as §1

[3] = test system: GRANTA-519 (B-Cell Non-Hodgkin's Lymphoma)
In short: as §1

[4] = test system: BC-1 (B-Cell Non-Hodgkin's Lymphoma)
In short: as §1

[5] = test system: L-363 (Plasma Cell Myeloma)
In short: as §1

[6] = test system: JJN-3 (Plasma Cell Myeloma)
In short: as §1

[7] = test system: SNU-1 (Gastric Carcinoma)
In short: as §1

[8] = test system: ATN-1 (T-Lymphoblastic Leukemia)
In short: as §1

[9] = test system: NCI-H2009 (Lung Adenocarcinoma)
In short: as §1

[10] = test system: OVKATE (Ovarian Carcinoma)
In short: as §1

[11] = test system: SW1463 (Colorectal Carcinoma)
In short: as §1

[12] = test system: IGROV-1 (Ovarian Carcinoma)
In short: as §1

C32 (Melanoma) = test system: C32 (Melanoma)
In short: as §1

[13] = test system: HT-3 (Cervical Carcinoma)
In short: as §1

[14] = test system: RS4-11 (B-Lymphoblastic Leukemia)
In short: as §1

[15] = test system: NTERA-2-cl-D1 (Other Solid Carcinomas)
In short: as §1

[16] = test system: SUP-HD1 (Hodgkin's Lymphoma)
In short: as §1

[17] = test system: C2BBe1 (Colorectal Carcinoma)
In short: as §1

SMILES	Bliss excess (SK-N-DZ (Neuroblastoma))	Bliss excess [1]	Bliss excess [2]	Bliss excess (HT-144 (Melanoma))	Bliss excess [3]	Bliss excess [4]	Bliss excess [5]	Bliss excess [6]	Bliss excess [7]	Bliss excess [8]	Bliss excess [9]	Bliss excess [10]	Bliss excess [11]	Bliss excess [12]	Bliss excess (C32 (Melanoma))	Bliss excess [13]	Bliss excess [14]	Bliss excess [15]	Bliss excess [16]	Bliss excess [17]
COc1cccc(OCCCN)c1-c1cc(Nc2cnc(C#N)cn2)n[nH]1 [Prexasertib] + Cc1cc2ncnn2cc1Nc1ncc2c(n1)n(C1CCOCC1)c(=O)n2C [AZD7648] (first compound max 1 µM, 7x7, partner max 10 µM)	-0.0049	-0.0609	0.0485	-0.0061	-0.0489	-0.0239	-0.0437	-0.0097	-0.0198	0.0136	-0.027	-0.0853	-0.0161	-0.0264	-0.004	-0.0098	-0.0159	-0.0688	-0.0443	0.0318
COc1cccc(OCCCN)c1-c1cc(Nc2cnc(C#N)cn2)n[nH]1 [Prexasertib] + C=CCn1c(=O)c2cnc(Nc3ccc(N4CCN(C)CC4)cc3)nc2n1-c1cccc(C(C)(C)O)n1 [AZD1775] (first compound max 1 µM, partner max 1 µM)	0.0202	0.0286	0.0271	0.0666	-0.0138	0.0168	0.0204	0.085	0.084	0.0134	0.0914	-0.0665	0.0656	-0.0343	-0.0206	0.159	0.0466	0.19	0.0009	0.0545
NC1(C(=O)N[C@@H](CCO)c2ccc(Cl)cc2)CCN(c2ncnc3[nH]ccc23)CC1 [Capivasertib] + COc1nnc2ccc(N3CCC(c4ccc(OCCN5CCN(C)C(=O)[C@H]5C)cc4)CC3)nn12 [AZD5153] (first compound max 10 µM, 7x7, partner max 1 µM)	0.0675	-0.0694	0.0101	0.0653	-0.0148	-0.0042	0.108	-0.0242	0.0177	-0.0444	0.0374	-0.0368	-0.0021	-0.0221	0.0434	-0.0281	0.089	-0.0097	-0.047	-0.0365
COc1nnc2ccc(N3CCC(c4ccc(OCCN5CCN(C)C(=O)[C@H]5C)cc4)CC3)nn12 [AZD5153] + Cc1c2c(nn1C)CSCc1cc(n(C)n1)CSc1cc(c3ccccc3c1)OCCCc1c(C(=O)O)n(C)c3c-2c(Cl)ccc13 [AZD5991] (first compound max 1 µM, 7x7, partner max 1 µM)	-0.0117	-0.0712	-0.055	-0.0094	-0.0164	-0.0202	-0.007	-0.0268	0.0194	-0.0304	-0.0271	-0.0209	-0.0631	-0.0069	0.142	0.0362	0.0102	0.0698	-0.0414	-0.041
CN(CCO)CC[C@H](CSc1ccccc1)Nc1ccc(S(=O)(=O)NC(=O)c2ccc(N3CCC([C@@H](O)c4ccccc4-c4ccc(Cl)cc4)CC3)cc2)cc1S(=O)(=O)C(F)(F)F [AZD4320] + C1CN(CCC1(C(=O)N[C@@H](CCO)C2=CC=C(C=C2)Cl)N)C3=NC=NC4=C3C=CN4 [Capivasertib] (first compound max 1 µM, 7x7, partner max 3 µM)	-0.0417	-0.067	-0.07	-0.0412	-0.0649	-0.0342	0.0659	-0.0265	-0.0441	-0.0802	-0.0467	-0.0775	-0.0497	-0.0385	-0.0564	-0.0593	0.0024	0.0075	-0.022	-0.0214
CC(=O)c1c(C)c2cnc(Nc3ccc(N4CCNCC4)cn3)nc2n(C2CCCC2)c1=O [Palbociclib] + CC1(C)CCC(CN2CCN(c3ccc(C(=O)NS(=O)(=O)c4ccc(NCC5CCOCC5)c([N+](=O)[O-])c4)c(Oc4cnc5[nH]ccc5c4)c3)CC2)=C(c2ccc(Cl)cc2)C1 [Venetoclax] (first compound max 10 µM, 7x7, partner max 1 µM)	0.0824	-0.0254	-0.0716	-0.0356	0.0884	-0.0747	-0.0262	-0.0357	0.0006	0.0869	-0.0543	-0.0484	-0.0899	0.0026	-0.0322	-0.0529	0.0385	-0.0389	-0.0641	-0.0656
Cc1c2c(nn1C)CSCc1cc(n(C)n1)CSc1cc(c3ccccc3c1)OCCCc1c(C(=O)O)n(C)c3c-2c(Cl)ccc13 [AZD5991] + CCN(CCO)CCCOc1ccc2c(Nc3cc(CC(=O)Nc4cccc(F)c4)[nH]n3)ncnc2c1 [AZD2811] (first compound max 1 µM, 7x7, partner max 1 µM)	0.043	0.0051	0.098	0.0561	0.109	0.0403	0.0523	0.0225	0.0586	-0.0413	0.071	-0.09	-0.0905	-0.0053	0.05	0.162	-0.0061	0.0704	0.0311	-0.0093
